Assays:
PAF = details: cited from earlier work
[1] = tested on: animal displaying atrial fibrillation; test: Treatment of atrial fibrillation by intra-tracheal flecainide, monitored by smartphone ECG and Prucka System; assay type: in vivo; details: intra-tracheal administration of 0.75 mg/kg; animal in atrial fibrillation
Protocol: An exemplary smart phone app was installed on a smartphone in order to monitor the efficacy of FA at ceasing incidence of atrial fibrillation. The smartphone app allowed for communication between the smart phone and an electronic monitoring chip used to produce an ECG.
The smart phone device was then used to monitor the treatment efficacy of an intra-tracheal administration of 0.75 mg/kg flecainide in treating atrial fibrillation. FIG. 9 depicts an exemplary ECG produced from a smartphone as compared to a Prucka System in an animal displaying atrial fibrillation. Again, the traces show excellent correlation between the two devices.

[2] = Assessment of different inhalers with flecainide acetate (FA) solution at 30 mg/ml; assay type: physicochemical
Protocol: Different inhalers were then tested to assess compatibility of material to the different materials of construction and different types of inhalers (Table 2).
The Trek S from PARI was able to deliver the same dose in about 3 minutes.

atrial fibrillation = test: Administration of diltiazem by inhalation in atrial fibrillation; assay type: in vivo
Text: Inhalation avoids the initial dilution of drug in the body as compared to intravenous or oral dosing. Inhalation also avoids first-pass metabolism, such as hepatic metabolism. For instance, calcium channel blockers, such as diltiazem, undergo significant hepatic metabolism when taken orally. Inhalation allows rapid delivery of the parent diltiazem compound to the heart as a bolus. […] Thus, administration by inhalation of diltiazem is useful for treating both atrial fibrillation and supraventricular tachycardia (SVT). In contrast, administration by IV of diltiazem is typically only used for converting SVT to normal sinus rhythm and in atrial fibrillation to reduce heart rate (not for converting to normal sinus rhythm). Inhalation also avoids red blood cell metabolism. For instance, the reduced dilution and short route associated with inhalation reduces red blood cell metabolism of esmolol. Inhalation may also avoid reduced blood pressure and fainting. For instance, IV administration of beta blockers, such as esmolol, and/or Class I antiarrhythmics such as flecainide, may reduce mean arterial blood pressure (MAP). Inhalation can allow rapid delivery of esmolol and/or flecainide without reducing MAP. […]

| Time to deliver a 30-40 mg dose ([2]; Pari e-rapid or Lumiscope inhalers, 30-40 mg dose) | Time to deliver a 30-40 mg dose ([2]; Trek S from PARI, same 30-40 mg dose) | Structure (SMILES) | Average time to terminate the PAF (PAF; oral bolus of 300 mg (max per day) at one time) [min] | Effectiveness of oral flecainide (PAF; oral) | Effect on atrial fibrillation (ECG rhythm) [1] | Effect on atrial fibrillation rhythm (atrial fibrillation) | Effect on heart rate (atrial fibrillation) |
| --- | --- | --- | --- | --- | --- | --- | --- |
| less than 2 minutes | about 3 minutes | O=C(NCC1CCCCN1)c1cc(OCC(F)(F)F)ccc1OCC(F)(F)F (stereo not shown) [flecainide] | 100 | 30-50% | return to sinus rhythm | – | – |
| – | – | COc1ccc([C@@H]2Sc3ccccc3N(CCN(C)C)C(=O)[C@@H]2OC(C)=O)cc1 [diltiazem] | – | – | – | converted atrial fibrillation to normal sinus rhythm | reduced heart rate |

Source: patent US10660578B2, “Combining electronic monitoring with inhaled pharmacological therapy to manage cardiac arrhythmias including atrial fibrillation” (InCarda Therapeutics, Inc., priority 2016, dated 2020)
